Results on 1 compound are retold here after patent publication US7662784B2, “Method for decreasing body weight using a somatostatin receptor agonist” (Ipsen Pharma, S.A.S., priority 1997, dated 2010).

Series [1] concerns fatty (fa/fa) Zucker rats. Nature of the series: Weight loss study, chronic (6 day) treatment in obese animal model.
For series [2], the system named is Obese (fa/fa) Zucker rats. The series is described as follows: Secondary endpoints: plasma glycerol and triglycerides after 6-day treatment, oral glucose challenge. In kind it is in vivo, rat. As to the method: Obese (fa/fa) Zucker rats were treated as in example 1 above. On the last day of treatment (day 6), food was removed at 5:00 p.m., and the rats were fasted overnight. At 9:00 a.m. the next day, the animals were subjected to a glucose challenge, given as 0.8 gram/kg of glucose orally. Periodic 400 μl of blood samples were taken from the tail vein (Peterson, R. G., ILAR News, 32:16-19 (1990)) 60 min. and 30 min. before and at 30, 60, 90, and 120 min. after the administration of the glucose challenge (0.8 gram/kg orally). Aprotinin (Traysylol, Bayer UK, Hayward's Health, W. Sussex, U.K. and heparin (Sigma Chemical Co., Poole, Dorset, U.K.) were added to the blood samples to a final concentration of 400 KIU/ml and 100 units/ml, respectively. Plasma fractions were prepared from these samples by centrifugation at 4000×G in a microfuge, for the estimation of triglycerides and glycerol. Samples were then stored at −80° C. until assayed.
Plasma glycerol and triglycerides were determined using the Sigma Enzymatic (Tinder) calorimetric assay kit (Cat #337-B, Sigma Chemical Co., Poole, Dorset, U.K.) and measuring absorbance at 540 nm in a spectrophotometer.

Setting [3] is: 3 mg/kg s.c. twice a day for six days, fatty Zucker rats.
Setting [4] is: after six days at 3 mg/kg s.c. twice a day, samples 30 and 60 minutes before the oral glucose challenge.
The mark [5] stands for this setting: throughout the 2-hour test period after oral glucose challenge (0.8 gram/kg).

SMILES strings stand for the structures. Bridge positions count the residues as written; N and C are the ends. Square brackets hold non-standard residues; d marks the D form. Peptide text beside a SMILES is read from it.

`C[C@@H](O)[C@@H]1NC(=O)[C@H](CCCCN)NC(=O)[C@@H](Cc2c[nH]c3ccccc23)NC(=O)[C@H](Cc2ccccc2)NC(=O)[C@H](Cc2ccccc2)NC(=O)[C@@H](N)CSSC[C@@H](C(N)=O)NC(=O)[C@H](Cc2ccccc2)NC1=O` [BIM-23268, H-Cys-Phe-Phe-D-Trp-Lys-Thr-Phe-Cys-NH2] (H-CFF[dW]KTFC-NH2; disulfide 1-8): the “amount of food consumed over the entire treatment period versus control” value in series [1] (3 mg/kg s.c. twice a day for six days) is reported as “no difference”. Further, in series [1] (setting [3]), the “body weight gain versus control” value is given as “lower” and the “toxic effect / appearance of treated group” value is “appeared healthy”. The compound further displayed an average food consumption in series [1] (3 mg/kg s.c. twice a day, 6-day treatment, control 26.0) of 25.9 g/rat/day. Also, the “treated group's mean weight after six days” value in series [1] (male fatty Zucker rats, 3 mg/kg s.c. twice a day for six days, control 418.89) is 413.6. Also, the “treated group's mean weight at the start of the trial” value in series [1] (male fatty Zucker rats, before 3 mg/kg s.c. twice a day, control 414.09) stood at 413.6. Also, the reducing hypertriglyceridemia result in series [2] (6-day treatment period at the prescribed dose (3 mg/kg s.c. twice a day)) is “effective in reducing hypertriglyceridemia”. Further, in series [2] (setting [4]), the plasma glycerol entry was “significantly lowered” and the plasma triglycerides result is “significantly lowered”. Besides, in series [2] (setting [5]), the plasma glycerol entry is “significantly lower” and the plasma triglycerides entry is given as “significantly lower”.
